Measured values: paper PMC6291754 (Frontiers in Microbiology, 2018)

Key:
Assay in all cases: microbe, parasite or virus in culture
[1] = tested on: A(H1N1)pdm09 viruses; type: cell-based, influenza A(H1N1)pdm09 virus; conditions: Influenza A virus, H1N1, read-out: median IC50
[2] = tested on: A(H3N2) viruses; type: cell-based; conditions: Influenza A virus, H3N2, read-out: median IC50
[3] = tested on: B/Victoria-lineage viruses; type: cell-based; conditions: Influenza B virus, read-out: median IC50
[4] = tested on: B/Yamagata-lineage viruses; type: cell-based; conditions: Influenza B virus, read-out: median IC50

Compound `O=C1c2c(O)c(=O)ccn2N([C@@H]2c3ccccc3SCc3c2ccc(F)c3F)[C@@H]2COCCN12` [Baloxavir, baloxavir acid] has an IC50 [1] of 0.28 nM, an IC50 [2] of 0.16 nM and an IC50 [3] of 3.42 nM. For the same compound, the IC50 [4] was 2.43 nM.
